ChEMBL document CHEMBL1123558, “Antitumor activity of bis(diphenylphosphino)alkanes, their gold(I) coordination complexes, and related compounds” (J Med Chem, 1987)
Where “and” joins values, the source holds several entries; their conditions need not be identical. Equal values may be shown once.

What was measured:
Mus musculus [1] = experiment: Maximally tolerated dose was measured after ip administration of compound, 24 hr after tumor implantation.; format: functional
B16 [2] = experiment: In vitro cytotoxicity against murine B16 melanoma cells; format: functional, cell-based, Mus musculus
P388 [3] = experiment: Maximum increase in life span was determined against P388 leukemia at 4-5 doses of compound; format: functional, Mus musculus
B16 [4] = experiment: Percent increase in life span after transplant tumor in B16 melanoma cells; format: functional, Mus musculus
L1210 = experiment: Percent increase in life span after transplant tumor in L1210 leukemia; format: functional, Mus musculus
[5] = Tumor growth inhibition activity after subcutaneous transplanted tumor in mammary carcinoma 16/C cells; format: functional, Mus musculus
ADJ/PC6 = experiment: Tumor growth inhibition activity after subcutaneous transplanted tumor in ADJ-PC6 plasmacytoma cells; format: functional, Mus musculus
[6] = system: Lewis lung carcinoma cell line; experiment: Percent increase in life span after transplant tumor in Lewis lung carcinoma cells; format: functional, Mus musculus
P388 [7] = experiment: Percent increase in life span after transplant tumor in p388 leukemia cells; format: functional, Mus musculus
[8] = Percent increase in life span after transplant tumor in Madison lung carcinoma cells; format: functional, Mus musculus, M109
M5076 = experiment: Percent increase in life span after transplant tumor in M5076 reticulum cells; format: functional, Mus musculus
Mus musculus [9] = species: Mus musculus

Row | Compound | MTD (Mus musculus [1]) | IC50 (B16 [2]; Mus musculus, B16) [µM] | ILSmax (P388 [3]) | also measured
1 | c1ccc(P(c2ccccc2)P(c2ccccc2)c2ccccc2)cc1 | 320 µM/kg | > 100 |  | 
2 | O=[N+]([O-])[O][Ag].O=[N+]([O-])[O][Ag].c1ccc(P(CCP(c2ccccc2)c2ccccc2)c2ccccc2)cc1 | 8 µM/kg |  |  | 
3 | c1ccc(P(CCP(c2ccccn2)c2ccccn2)c2ccccn2)nc1 | 60 µM/kg | > 100 |  | 
4 | C(=C/P(c1ccccc1)c1ccccc1)/P(c1ccccc1)c1ccccc1 | 61 µM/kg | 25 | 60 | 
5 | c1ccc(P(CCCCCP(c2ccccc2)c2ccccc2)c2ccccc2)cc1 | 18 µM/kg | > 100 | 50 | 
6 | c1csc(P(CCP(c2cccs2)c2cccs2)c2cccs2)c1 | 38 µM/kg | > 100 | 60 | 
7 | c1ccc(P(CCCCP(c2ccccc2)c2ccccc2)c2ccccc2)cc1 | 66 µM/kg | > 100 | 45 | 
8 | CCP(CCP(CC)c1ccccc1)c1ccccc1 (stereo not given) | >300 µM/kg | > 100 |  | 
9 | c1cc(P(CCP(c2ccncc2)c2ccncc2)c2ccncc2)ccn1 | 80 µM/kg |  | 35 | 
10 | c1ccc([As](CC[As](c2ccccc2)c2ccccc2)c2ccccc2)cc1 | 82 µM/kg | > 100 |  | 
11 | CSc1ccc(P(CCP(c2ccc(SC)cc2)c2ccc(SC)cc2)c2ccc(SC)cc2)cc1 | 55 µM/kg |  | 58 | 
12 | Cc1ccc(P(CCP(c2ccc(C)cc2)c2ccc(C)cc2)c2ccc(C)cc2)cc1 | 26 µM/kg | > 100 |  | 
13 | C(#CP(c1ccccc1)c1ccccc1)P(c1ccccc1)c1ccccc1 | >300 µM/kg | 23 |  | 
14 | c1ccc(P(CCP(c2ccccc2)c2ccccc2)CCP(c2ccccc2)c2ccccc2)cc1 | 60 µM/kg | > 100 | 80 | 
15 | FC(F)(F)c1ccc(P(CCP(c2ccc(C(F)(F)F)cc2)c2ccc(C(F)(F)F)cc2)c2ccc(C(F)(F)F)cc2)cc1 | 48 µM/kg |  | 38 | 
16 | O=P(CCP(=O)(c1ccccc1)c1ccccc1)(c1ccccc1)c1ccccc1 | 300 µM/kg | > 100 |  | 
17 | CSc1ccccc1P(CCP(c1ccccc1SC)c1ccccc1SC)c1ccccc1SC | 110 µM/kg |  | 51 | 
18 | CC(CP(c1ccccc1)c1ccccc1)P(c1ccccc1)c1ccccc1 (stereo not given) | 78 µM/kg | 50 | 86 | 
19 | c1ccc(P(CCP(c2ccccc2)c2ccccc2)c2ccccc2)cc1 | 60 µM/kg and 50 µM/kg | 50 | 80 and 107 | ILS (B16 [4]): 38%; ILS (L1210): 56%; IC50 (B16 [2]; b16): 60 µM; TGI [5]: 88%; TGI (ADJ/PC6): 94%; ILS [6]: 69%; ILS (P388 [7]): 107%; ILS [8]: 50%; ILS (M5076): 74%

Row | Compound | MTD (Mus musculus [1]) | IC50 (B16 [2]; Mus musculus, B16) [µM] | ILSmax (P388 [3]) | also measured
20 | c1ccc(P(CCP(CCP(c2ccccc2)c2ccccc2)CCP(c2ccccc2)c2ccccc2)c2ccccc2)cc1 | 95 µM/kg | 58 | 35 | 
21 | c1ccc(CP(CCP(Cc2ccccc2)Cc2ccccc2)Cc2ccccc2)cc1 | 44 µM/kg | > 100 |  | 
22 | c1ccc(SCCSc2ccccc2)cc1 | 1000 µM/kg | > 100 |  | 
23 | COc1ccccc1P(CCP(c1ccccc1OC)c1ccccc1OC)c1ccccc1OC | 120 µM/kg |  |  | 
24 | C1CCC(P(CCP(C2CCCCC2)C2CCCCC2)C2CCCCC2)CC1 | 76 µM/kg | > 100 | 68 | 
25 | CC(C(C)P(c1ccccc1)c1ccccc1)P(c1ccccc1)c1ccccc1 (stereo not given) | 113 µM/kg | 50 | 73 | 
26 | c1ccc(P(CCCCCCP(c2ccccc2)c2ccccc2)c2ccccc2)cc1 | 280 µM/kg | > 100 |  | 
27 | 4,4'-Bis-diphenylphosphanyl-biphenyl; compound with GENERIC INORGANIC NEUTRAL COMPONENT |  |  |  | MTD (Mus musculus [9]): 35 µM/kg and 24 µM/kg and 30 µM/kg
28 | c1ccc(P(c2ccccc2)c2ccc(P(c3ccccc3)c3ccccc3)cc2)cc1 | >600 µM/kg | > 100 |  | 
29 | CCP(CC)CCP(CC)CC | 310 µM/kg | > 100 |  | 
30 | c1coc(P(CCP(c2ccco2)c2ccco2)c2ccco2)c1 | 180 µM/kg | > 100 | 60 | 
31 | Fc1ccc(P(CCP(c2ccc(F)cc2)c2ccc(F)cc2)c2ccc(F)cc2)cc1 | 17 µM/kg | > 100 | 60 | 
32 | Cc1cccc(P(CCP(c2cccc(C)c2)c2cccc(C)c2)c2cccc(C)c2)c1 | 70 µM/kg | > 100 |  | 
33 | Fc1ccccc1P(CCP(c1ccccc1F)c1ccccc1F)c1ccccc1F | 68 µM/kg | > 100 | 45 | 
34 | COc1ccc(P(CCP(c2ccc(OC)cc2)c2ccc(OC)cc2)c2ccc(OC)cc2)cc1 | 62 µM/kg | 66 |  | 
35 | CN(C)c1ccc(P(CCP(c2ccc(N(C)C)cc2)c2ccc(N(C)C)cc2)c2ccc(N(C)C)cc2)cc1 | >220 µM/kg |  |  | 
36 | C(=C\P(c1ccccc1)c1ccccc1)/P(c1ccccc1)c1ccccc1 | 320 µM/kg | 40 |  | 
37 | c1ccc(P(CC[As](c2ccccc2)c2ccccc2)c2ccccc2)cc1 | 89 µM/kg | 55 |  | 
38 | c1ccc(P(CCCP(c2ccccc2)c2ccccc2)c2ccccc2)cc1 | 78 µM/kg | 72 | 75 | 
